Test results from patent publication US10407467B2, “Polymyxin derivatives and their use in combination therapy together with different antibiotics” (priority 2013, dated 2019).
Structures can show the parent of a compound that is named as a salt. Bridge positions count the residues as written; N and C are the ends. Square brackets hold non-standard residues; d marks the D form. Peptide text beside a SMILES is read from it. * marks the point of attachment. ξ: configuration not given here. X12 = CC(C)C[C@H](N)[C@H](O)C(=O)*; Thr(3ξ) = CC(O)[C@H](N)C(=O)O; Dab = NCC[C@H](N)C(=O)O; X1 = CCCCCCC(O)C(=O)*

Assays:
[1] = rats, 8 mg/kg BID regimen, seven days, compared to Colistin at the same dose regimen
Experimental: After one week acclimatisation, male Sprague-Dawley rats were surgically prepared with a jugular cannula and were housed individually, as required, either in pre-assigned housing cages or metabolic cages. Colistin and the Example Compounds were prepared in saline.
Compounds were introduced via the jugular cannula twice a day 7 hours apart for seven days. Each dose was increased progressively for three days up to the top dose that was then administered until termination of the study. Twenty-four hour urine collection (on ice) was performed at pre-dose and on days 4 and 7. The dose regimen is set out in Table 10 below.
The doses in the table are indicated in mg drug base/kg (free base).
The activity in urine of the N-acetyl-beta-D-glucosaminidase (NAG) was determined spectrophotometrically using the NAG assay kit from Roche Applied Science. Biomarkers of kidney injury were determined using the Kidney Injury Panel II from the Multi-Spot® Assay System (Meso Scale Discovery).

HK-2 cell line = assay: In vitro renal cell toxicity assay (resazurin reduction); format: cell-based, human
Acinetobacter baumannii [2] = assay: MIC, compound in combination with a second agent (broth microdilution); format: cell-based; details: for MIC A. baumannii CCUG57249: strain CCUG57249
In short: (§1)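 Isolated colonies from an 18-24 hour Mueller-Hinton agar plate are suspended to the 0.5 McFarland standard, then tested against 1:1 w/w mixtures of compound and a second antibacterial such as rifampicin. Reported MICs represent total drug (both components).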

Escherichia coli [3] = assay: as above; format: cell-based
In short: as §1

Klebsiella pneumoniae [4] = assay: as above; format: cell-based; details: for MIC K. pneumoniae CCUG-59348: strain CCUG-59348
In short: as §1

Pseudomonas aeruginosa [5] = assay: as above; format: cell-based; details: for MIC P. aeruginosa ATCC-47: strain ATCC-47
In short: as §1

Acinetobacter baumannii [6] = assay: MIC, sole activity (no second agent); format: cell-based
In short: (§2)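 Compound tested without a second agent in cation-adjusted MHB, up to four strains per species, inoculum at 0.5 McFarland from colonies grown 18-24 h on Mueller-Hinton agar. Run in duplicate, invalid beyond 2-fold disagreement, lower duplicate or modal repeat value given, expressed relative to Polymyxin B.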

Escherichia coli [7] = assay: MIC, sole activity (no second agent); format: cell-based
In short: as §2

Klebsiella pneumoniae [8] = assay: MIC, sole activity (no second agent); format: cell-based
In short: as §2

Pseudomonas aeruginosa [9] = assay: MIC, sole activity (no second agent); format: cell-based
In short: as §2

[10] = system: Klebsiella pneumoniae ATCC10031; details: 10 mg/kg/day, neutropenic mice thigh infection
Experimental: At 1 h, the CFU count was determined from 5 mice and the remaining mice (five per group) were treated with a subcutaneous injection of the drug at +1 and 6 hr post-infection.
Twenty-four hours after infection, the mice were euthanized humanely. The muscle of the right thigh of each animal was harvested, homogenized, serially diluted and plated on Brain Heart Infusion agar+0.5% charcoal (w/v) for CFU determination. Decrease of the total CFU of right thigh as compared to control counts at 24 h post-infection was determined for each dose group.

P. aeruginosa ATCC27853 = format: in vivo, Pseudomonas aeruginosa; details: ATCC27853, in vivo, iv, 5 mg/kg, 6 h
Experimental: Compounds were administered in solution by intravenous (IV) bolus injection into the lateral tail vein. […] At 1 hour post infection, 4 animals were humanely euthanized using pentabarbitone overdose to provide a pre-treatment control group. At 9 hours post infection, the clinical condition of all animals was assessed prior to them being humanely euthanized by pentabarbitone overdose. Animal weight was determined before both thighs were removed and weighed individually. Individual thigh tissue samples were homogenized in ice cold sterile phosphate buffered saline. Thigh homogenates were then quantitatively cultured onto CLED agar and incubated at 37° C. for 24 hours before colonies were counted.

[11] = 1:1 (wt:wt) combination with Rifampicin, MIC = total drug concentration
[12] = 1:1 (wt:wt) combination with Rifampicin, MIC = total drug concentration, strain NCTC 13424
[13] = 1:1 combination with Ciprofloxacin (by row order), total drug concentration
[14] = 1:1 (wt:wt) combination with Rifampicin, MIC = total drug concentration, strain NCTC9001
[15] = 1:1 combination with Ciprofloxacin, total drug concentration
[16] = 1:1 combination with Tigecycline, total drug concentration
[17] = 1:1 combination with Vancomycin, total drug concentration
[18] = 1:1 (wt:wt) combination with Rifampicin, MIC = total drug concentration, strain ATCC 27853
[19] = 1:1 (wt:wt) combination with Rifampicin, MIC = total drug concentration, strain CCUG 59626
[20] = Second Agent none (Table 7B, by row order)

## CCCCCCC(O)C(=O)N[C@H](C(=O)N[C@@H](CCN)C(=O)N[C@H]1CCNC(=O)[C@H]([C@@H](C)O)NC(=O)[C@H](CCN)NC(=O)[C@H](CCN)NC(=O)[C@H](CC(C)C)NC(=O)[C@@H](Cc2ccccc2)NC(=O)[C@H](CCN)NC1=O)[C@@H](C)O (stereo partly drawn) [Example 1, [2(R,S)-2-Hydroxyoctanoyl] polymyxin B nonapeptide] (X1-T[Dab][Dab][Dab][dF]L[Dab][Dab]T; lactam 3-C)
[1]
  levels of the renal biomarkers NAG, albumin and cystatin C in urine: significantly reduced levels
HK-2 cell line
  HK-2 toxicity (IC50) compared with PMB: significantly increased recorded IC50 values
Acinetobacter baumannii [2]; [11]
  MIC A. baumannii CCUG57249: 0.25 micrograms/mL
Acinetobacter baumannii [2]; [12]
  MIC A. baumannii NCTC 13424: 0.25 micrograms/mL
Acinetobacter baumannii [2]; [13]
  MIC A. baumannii NCTC 13424: 0.5 micrograms/mL
Escherichia coli [3]; [14]
  MIC E. coli NCTC9001: 0.5 micrograms/mL
Escherichia coli [3]; [15]
  MIC E. coli ATCC25922: ≤0.06 micrograms/mL
  MIC E. coli CCUG 59342: 2 micrograms/mL
  MIC E. coli NCTC9001: ≤0.06 micrograms/mL
Escherichia coli [3]; [16]
  MIC E. coli NCTC9001: 4 micrograms/mL
Escherichia coli [3]; [17]
  MIC E. coli NCTC9001: 4 microgram/mL
Escherichia coli [3]; E. coli NCTC9001, 1:1 combination with Meropenem, total drug concentration
  MIC E. coli NCTC9001: 0.25 micrograms/mL
Klebsiella pneumoniae [4]; 1:1 (wt:wt) combination with Rifampicin, MIC = total drug concentration, strain ATCC 4352
  MIC K. pneumoniae ATCC 4352: 1 micrograms/mL
Klebsiella pneumoniae [4]; 1:1 (wt:wt) combination with Rifampicin, MIC = total drug concentration, strain ATCC-BAA-2146
  MIC K. pneumoniae ATCC-BAA-2146: 2 micrograms/mL
Klebsiella pneumoniae [4]; [11]
  MIC K. pneumoniae CCUG-59348: 2 micrograms/mL
Klebsiella pneumoniae [4]; 1:1 (wt:wt) combination with Rifampicin, MIC = total drug concentration, strain NCTC 13438
  MIC K. pneumoniae NCTC 13438: 1 micrograms/mL
Klebsiella pneumoniae [4]; [13]
  MIC K. pneumoniae ATCC 4352: ≤0.06 micrograms/mL
  MIC K. pneumoniae ATCC BAA-1706: 0.5 micrograms/mL
Klebsiella pneumoniae [4]; [15]
  MIC K. pneumoniae CCUG 59348: 32 micrograms/mL
  MIC K. pneumoniae NCTC 13442: 1 micrograms/mL
Klebsiella pneumoniae [4]; [16]
  MIC K. pneumoniae CCUG 59348: >32 micrograms/mL
  MIC K. pneumoniae NCTC 13442: 16 micrograms/mL
Klebsiella pneumoniae [4]; [17]
  MIC K. pneumoniae CCUG 59348: >32 microgram/mL
  MIC K. pneumoniae CCUG 59626: 2 microgram/mL
  MIC K. pneumoniae NCTC 13442: 8 microgram/mL
Klebsiella pneumoniae [4]; K. pneumoniae ATCC BAA-1706, 1:1 combination with Meropenem, total drug concentration
  MIC K. pneumoniae ATCC BAA-1706: 4 micrograms/mL
Klebsiella pneumoniae [4]; K. pneumoniae CCUG 59348, 1:1 combination with Meropenem, total drug concentration
  MIC K. pneumoniae CCUG 59348: >32 micrograms/mL
Klebsiella pneumoniae [4]; K. pneumoniae NCTC 13442, 1:1 combination with Meropenem, total drug concentration
  MIC K. pneumoniae NCTC 13442: 8 micrograms/mL
Pseudomonas aeruginosa [5]; [18]
  MIC P. aeruginosa ATCC 27853: 0.5 micrograms/mL
Pseudomonas aeruginosa [5]; [11]
  MIC P. aeruginosa ATCC-47: 1 micrograms/mL
Pseudomonas aeruginosa [5]; [19]
  MIC P. aeruginosa CCUG 59626: 1 micrograms/mL
Pseudomonas aeruginosa [5]; [13]
  MIC P. aeruginosa ATCC 27853: 0.125 micrograms/mL
  MIC P. aeruginosa CCUG 59626: 1 micrograms/mL
Pseudomonas aeruginosa [5]; [16]
  MIC P. aeruginosa CCUG 59626: 2 micrograms/mL
Pseudomonas aeruginosa [5]; P. aeruginosa CCUG 59626, 1:1 combination with Meropenem, total drug concentration
  MIC P. aeruginosa CCUG 59626: 2 micrograms/mL
Acinetobacter baumannii [6]; [20]
  MIC A. baumannii NCTC 13424: 4 micrograms/mL
Acinetobacter baumannii [6]; in the absence of Rifampicin, strain ATCCBAA-747
  MIC A. baumannii ATCCBAA-747: 2 micrograms/mL
Acinetobacter baumannii [6]; in the absence of Rifampicin, strain NCTC13423
  MIC A. baumannii NCTC 13423: 1 micrograms/mL
Escherichia coli [7]; E. coli NCTC9001, second agent none
  MIC E. coli NCTC9001: 4 micrograms/mL
Escherichia coli [7]; Second Agent none (Table 7A)
  MIC E. coli NCTC9001: 4 microgram/mL
Escherichia coli [7]; Second Agent none (Table 7B)
  MIC E. coli ATCC25922: 4 micrograms/mL
  MIC E. coli CCUG 59342: 1 micrograms/mL
  MIC E. coli NCTC9001: 8 micrograms/mL
Escherichia coli [7]; Second Agent none (Table 7C)
  MIC E. coli NCTC9001: 4 micrograms/mL
Escherichia coli [7]; in the absence of Rifampicin, strain ATCC25922
  MIC E. coli ATCC25922: 2 micrograms/mL
Escherichia coli [7]; in the absence of Rifampicin, strain NCTC9001
  MIC E. coli NCTC9001: 2 micrograms/mL
Klebsiella pneumoniae [8]; K. pneumoniae ATCC BAA-1706, second agent none
  MIC K. pneumoniae ATCC BAA-1706: 4 micrograms/mL
Klebsiella pneumoniae [8]; K. pneumoniae CCUG 59348, second agent none
  MIC K. pneumoniae CCUG 59348: >32 micrograms/mL
Klebsiella pneumoniae [8]; K. pneumoniae NCTC 13442, second agent none
  MIC K. pneumoniae NCTC 13442: 8 micrograms/mL
Klebsiella pneumoniae [8]; Second Agent none (Table 7A)
  MIC K. pneumoniae CCUG 59348: >32 microgram/mL
  MIC K. pneumoniae CCUG 59626: 2 microgram/mL
  MIC K. pneumoniae NCTC 13442: 8 microgram/mL
Klebsiella pneumoniae [8]; Second Agent none (Table 7B)
  MIC K. pneumoniae CCUG 59348: >32 micrograms/mL
  MIC K. pneumoniae NCTC 13442: 8 micrograms/mL
Klebsiella pneumoniae [8]; [20]
  MIC K. pneumoniae ATCC 4352: 1 micrograms/mL
  MIC K. pneumoniae ATCC BAA-1706: 4 micrograms/mL
Klebsiella pneumoniae [8]; Second Agent none (Table 7C)
  MIC K. pneumoniae CCUG 59348: >32 micrograms/mL
  MIC K. pneumoniae NCTC 13442: 8 micrograms/mL
Klebsiella pneumoniae [8]; in the absence of Rifampicin, strain ATCC 4352
  MIC K. pneumoniae ATCC 4352: 1 micrograms/mL
Klebsiella pneumoniae [8]; in the absence of Rifampicin, strain CCUG-59348
  MIC K. pneumoniae CCUG-59348: >32 micrograms/mL
Pseudomonas aeruginosa [9]; P. aeruginosa CCUG 59626, second agent none
  MIC P. aeruginosa CCUG 59626: 2 micrograms/mL
Pseudomonas aeruginosa [9]; [20]
  MIC P. aeruginosa ATCC 27853: 0.5 micrograms/mL
  MIC P. aeruginosa CCUG 59626: 2 micrograms/mL
Pseudomonas aeruginosa [9]; Second Agent none (Table 7C)
  MIC P. aeruginosa CCUG 59626: 2 micrograms/mL
Pseudomonas aeruginosa [9]; in the absence of Rifampicin, strain ATCC27853
  MIC P. aeruginosa ATCC 27853: 0.5 micrograms/mL
Pseudomonas aeruginosa [9]; in the absence of Rifampicin, strain ATCCCRM-9027
  MIC P. aeruginosa ATCCCRM-9027: 0.25 micrograms/mL
Pseudomonas aeruginosa [9]; in the absence of Rifampicin, strain CCUG 59626
  MIC P. aeruginosa CCUG 59626: 2 micrograms/mL
[10]
  reduction in bacterial counts: approx. 2 log10

## CC(C)C[C@@H]1NC(=O)[C@@H](Cc2ccccc2)NC(=O)[C@H](CCN)NC(=O)[C@@H](NC(=O)[C@H](CCN)NC(=O)[C@@H](NC(=O)[C@@H](O)[C@@H](N)CC(C)C)C(C)O)CCNC(=O)[C@H](C(C)O)NC(=O)[C@H](CCN)NC(=O)[C@H](CCN)NC1=O (stereo partly drawn) [Example 41, (2S,3S)-3-Amino-2-hydroxy-5-methylhexanoyl polymyxin B nonapeptide, trifluoroacetate salt] (X12-[Thr(3ξ)][Dab][Dab][Dab][dF]L[Dab][Dab][Thr(3ξ)]; lactam 3-C)
P. aeruginosa ATCC27853
  log reduction in bacterial counts compared to non-treated control: 2.73 log
Acinetobacter baumannii [2]; 1:1 (wt:wt) combination with Rifampicin, MIC = total drug concentration, strain ATCC BAA-747
  MIC A. baumannii ATCC BAA-747: ≤0.06 micrograms/mL
Acinetobacter baumannii [2]; [11]
  MIC A. baumannii CCUG57249: ≤0.06 micrograms/mL
Acinetobacter baumannii [2]; 1:1 (wt:wt) combination with Rifampicin, MIC = total drug concentration, strain NCTC 13423
  MIC A. baumannii NCTC 13423: ≤0.06 micrograms/mL
Acinetobacter baumannii [2]; [12]
  MIC A. baumannii NCTC 13424: ≤0.06 micrograms/mL
Escherichia coli [3]; 1:1 (wt:wt) combination with Rifampicin, MIC = total drug concentration, strain ATCC25922
  MIC E. coli ATCC25922: ≤0.06 micrograms/mL
Escherichia coli [3]; [14]
  MIC E. coli NCTC9001: 0.125 micrograms/mL
Klebsiella pneumoniae [4]; [11]
  MIC K. pneumoniae CCUG-59348: 2 micrograms/mL
Pseudomonas aeruginosa [5]; [18]
  MIC P. aeruginosa ATCC 27853: 0.125 micrograms/mL
Pseudomonas aeruginosa [5]; 1:1 (wt:wt) combination with Rifampicin, MIC = total drug concentration, strain ATCC CRM-9027
  MIC P. aeruginosa ATCC CRM-9027: 0.25 micrograms/mL
Pseudomonas aeruginosa [5]; [11]
  MIC P. aeruginosa ATCC-47: ≤0.06 micrograms/mL
Pseudomonas aeruginosa [5]; [19]
  MIC P. aeruginosa CCUG 59626: 0.125 micrograms/mL
